Values quoted from earlier work, collected in patent US20170042798A1, “USE OF BIDENS EXTRACT TO REDUCE SIGNS OF SKIN AGING” (KIMBERLY-CLARK WORLDWIDE ,INC., priority 2014, published 2017).

System: 3T3-L1 cells
Conditions: literature, Nutr. Res. 32(6): 439-447

Fucoidan
adipogenesis: inhibit adipogenesis
